The target in one test is FGFR4 kinase (Homo sapiens, UniProt P22455). Nature of the test: Inhibition of FGFR4 kinase activity (ULight-labeled JAK-1 peptide, EU665/EU615 reading). The test is classed as biochemical. Conditions: FGFR4 kinase 3.85 nM, ATP 100 μM, enzymatic reaction 2 hours. Here is the method: (§1) Assay of activity of small molecule compounds on inhibiting FGFR4 kinase and FGFR4 V550L mutant kinase. The assay method was as follows:
(§2) 1) Dilution of Compounds:
(§3) In a 96-well plate a, the compounds were serially diluted 3-fold with DMSO to form 11 concentrations, and the 12th concentration was pure DMSO (as a positive control); In a new 96-well plate b, the above solutions were diluted 25-fold with ultrapure water (DMSO concentration was 4%).
(§4) 2) Transferring Compounds to a 384-Well Plate:
(§5) The above solutions of compounds diluted with ultrapure water in the 96-well plate b were pipetted into corresponding wells of a 384-well plate.
(§6) 3) Adding 4× kinase solution: 2.5 μl of the above 4× kinase solutions were pipetted with a multi-channel pipette into corresponding reaction wells of the 384-well plate, and the mixture was mixed well and pre-reacted at room temperature for 5 minutes.
(§7) 4) Adding 2× substrate/ATP mixture: 5 μl of the above 2× substrate/ATP mixtures were pipetted with a multi-channel pipette into corresponding reaction wells of the 384-well plate.
(§8) 5) Negative control: negative control wells were set up in the 384-well plate by adding 2.5 μl of 4× substrate, 2.5 μl of 4× enzyme solution, 2.5 μl of 1× kinase Assay Buffer and 2.5 μl of ultrapure water containing 4% DMSO to each well.
(§9) 6) Centrifuging, mixing well, and reacting at room temperature in the dark for 2 hours.
(§10) 7) Terminating the Enzymatic Reaction:
(§11) 5 μl of the above 4× stop solutions were pipetted into corresponding wells of the 384-well plate, and the mixture was centrifuged, mixed well, and then reacted at room temperature for 5 minutes.
(§12) 8) Development of the Reaction:
(§13) 5 μl of the above 4× detection solutions were pipetted into corresponding wells of the 384-well plate, and the mixture was centrifuged, mixed well, and then reacted at room temperature for 1 hour.
(§14) 9) The 384-well plate was placed into a plate reader, and the signal was detected using the appropriate program.
(§15) 10) Analysis of IC50: Reading of well=10000*EU665 value/EU615 value Inhibition rate=(reading of positive control well−reading of assay well)/(reading of positive control well−reading of negative control well)*100%
(§16) The corresponding IC50 can be calculated by inputting the drug concentrations and corresponding inhibition rates into GraphPad Prism 5 and processing.
Assay Conditions for Screening FGFR4 Kinase Activity Inhibitory Molecule:
The final concentration of FGFR4 kinase in the reaction system was 3.85 nM, the final concentration of ATP was 100 μM, the final concentration of substrate ULight™-labeled JAK-1 (Tyr1023) Peptide was 100 nM, and the time for enzymatic reaction was 2 hours.
The highest final concentration of the compound in the reaction system was 2.5 μM. After serial 3-fold dilution, there were 11 concentrations in total, and the lowest final concentration was 0.042 nM. The final concentration of DMSO was 1%.

Test [1] deals with T1, Ba/F3 ETV6-FGFR4-V550L cells (Homo sapiens, UniProt P22455, V550L, cells depend on it).
T1 construct: fused on or other part: N-terminal part of ETV6 (TEL), the oligomerising partner of the fusion; already named as the first entry; P41212 (Transcription factor ETV6)
T1 sequence (P22455 whole entry V550L, the tested form may be a part): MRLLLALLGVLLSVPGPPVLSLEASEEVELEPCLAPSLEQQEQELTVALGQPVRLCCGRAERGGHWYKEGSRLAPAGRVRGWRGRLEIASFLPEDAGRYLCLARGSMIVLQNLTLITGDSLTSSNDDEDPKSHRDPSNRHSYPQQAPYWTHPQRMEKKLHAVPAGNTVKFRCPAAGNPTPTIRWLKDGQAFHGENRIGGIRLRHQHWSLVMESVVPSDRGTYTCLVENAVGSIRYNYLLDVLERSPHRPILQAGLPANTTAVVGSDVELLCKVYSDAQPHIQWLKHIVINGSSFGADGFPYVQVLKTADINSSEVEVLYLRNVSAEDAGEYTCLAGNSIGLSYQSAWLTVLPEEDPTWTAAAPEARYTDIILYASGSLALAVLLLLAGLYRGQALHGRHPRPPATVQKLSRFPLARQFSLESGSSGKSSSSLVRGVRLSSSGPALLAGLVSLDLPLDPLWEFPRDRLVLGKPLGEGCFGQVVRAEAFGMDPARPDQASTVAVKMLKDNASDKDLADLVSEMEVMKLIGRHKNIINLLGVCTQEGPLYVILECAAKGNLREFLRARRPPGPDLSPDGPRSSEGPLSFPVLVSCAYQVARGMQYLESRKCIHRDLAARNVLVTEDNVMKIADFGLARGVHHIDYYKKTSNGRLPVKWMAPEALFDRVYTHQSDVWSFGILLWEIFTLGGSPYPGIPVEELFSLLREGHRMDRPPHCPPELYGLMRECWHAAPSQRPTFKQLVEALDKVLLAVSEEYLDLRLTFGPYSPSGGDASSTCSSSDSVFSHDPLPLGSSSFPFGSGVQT
As to the kind of experiment: Inhibition of cell proliferation (CCK-8), Ba/F3 ETV6-FGFR4-V550L cells. The test is classed as cell-based. To be noted: 72 hours of incubation, read-out: Ba/F3 ETV6-FGFR4-V550L IC50. The procedure:
(§17) Compounds were assayed for inhibiting cell proliferation, and the specific method was as follows: • 1. Cells were cultured to a logarithmic growth phase, pipetted evenly, transferred to a 15 mL centrifuge tube, and centrifuged at 1000 rpm at room temperature for 4 minutes; • 2. The supernatant was discarded; 5 mL of complete medium was added and pipetted evenly; 10 μL of cell suspension was weighed, mixed well with 10 μL of 0.4% trypan blue, and counted under a cell counter; the proportion of living cells was ensured to be above 90%; • 3. The cell suspension was seeded into a 96-well plate (80 μL of cell suspension per well) according to the conditions shown in Table 5; in the outer 36 wells of the 96-well plate, no cells were added but only sterile water was added; only the inner 60 wells were used for cell assay and control; • 4. 5× compound dilution: the compounds were serially diluted 4-fold to give a total of 9 concentrations; 80-fold overall dilution was completed with complete medium, the resulting concentration was 5 times the final drug concentration, and DMSO concentration was 1.25%; • 5. 20 μL of the corresponding compounds with different concentrations were added to each well of assay wells of the 96-well plate; 20 μL of complete medium was added to positive and negative control wells and shaken well; and the final concentration of DMSO in each well was 0.25%; • 6. After 72 hours of incubation, 10 μL of CCK-8 reagent was added to each well and further incubated at 37° C. for 1-2 hours; and the OD value was read at 450 nm; 7. Cell survival rate (%)=[(As−Ab)/(Ac−Ab)]*100% • As: Assay well (medium containing cells, CCK-8, compound) • Ac: Control well (medium containing cells, CCK-8) • Ab: Blank well (medium without cell and compound, CCK-8) • 8. The values were imported into Graphpad Prism 5 software for IC50 calculation.

The next test concerns the target T2, Ba/F3 ETV6-FGFR4 cells (Homo sapiens, UniProt P22455).
T2 construct: fused on or other part: N-terminal part of ETV6 (TEL), the oligomerising partner that makes the FGFR4 kinase constitutively active; P41212 (Transcription factor ETV6)
As to the kind of experiment: Inhibition of cell proliferation (CCK-8), Ba/F3 ETV6-FGFR4 cells. The test is classed as cell-based. To be noted: 72 hours of incubation, read-out: Ba/F3 ETV6-FGFR4 IC50. The procedure: as §17

Another test deals with FGFR4 V550L kinase (Homo sapiens, UniProt P22455, V550L). As to the kind of experiment: Inhibition of FGFR4 V550L mutant kinase activity (ULight-labeled PolyGT, EU665/EU615 reading). The test is classed as biochemical. To be noted: FGFR4 V550L kinase 1 nM, ATP 10 μM, enzymatic reaction 2 hours. Here is the method: as §1, §2, §3, §4, §5, §6, §7, §8, §9, §10, §11, §12, §13, §14, §15, §16
Sequence of FGFR4 V550L kinase (P22455 22-802 V550L): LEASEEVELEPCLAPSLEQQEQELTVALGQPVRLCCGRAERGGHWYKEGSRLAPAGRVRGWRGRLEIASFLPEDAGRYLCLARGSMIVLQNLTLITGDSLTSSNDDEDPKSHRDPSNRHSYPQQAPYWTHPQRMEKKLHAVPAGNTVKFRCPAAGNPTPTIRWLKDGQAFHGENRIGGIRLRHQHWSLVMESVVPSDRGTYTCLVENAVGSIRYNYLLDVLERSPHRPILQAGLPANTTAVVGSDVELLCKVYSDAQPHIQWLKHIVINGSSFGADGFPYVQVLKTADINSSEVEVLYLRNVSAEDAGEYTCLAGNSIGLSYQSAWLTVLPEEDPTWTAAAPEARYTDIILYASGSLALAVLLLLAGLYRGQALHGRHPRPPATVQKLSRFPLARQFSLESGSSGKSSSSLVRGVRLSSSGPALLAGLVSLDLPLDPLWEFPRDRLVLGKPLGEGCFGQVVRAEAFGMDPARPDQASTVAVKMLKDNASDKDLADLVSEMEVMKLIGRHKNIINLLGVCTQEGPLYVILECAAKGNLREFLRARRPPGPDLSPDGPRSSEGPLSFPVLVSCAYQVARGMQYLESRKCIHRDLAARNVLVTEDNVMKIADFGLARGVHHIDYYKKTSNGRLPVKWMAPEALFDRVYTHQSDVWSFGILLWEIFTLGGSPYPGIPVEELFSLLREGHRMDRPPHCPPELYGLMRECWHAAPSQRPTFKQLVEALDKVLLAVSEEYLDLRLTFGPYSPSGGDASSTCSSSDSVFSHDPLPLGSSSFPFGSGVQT
Assay Conditions for Screening FGFR4 V550L Kinase Activity Inhibitory Molecule:
The final concentration of FGFR4 V550L kinase in the reaction system was 1 nM, the final concentration of ATP was 10 μM, the final concentration of substrate ULight™-labeled PolyGT was 100 nM, and the time for enzymatic reaction was 2 hours.
The highest final concentration of the compound in the reaction system was 2.5 μM. After seral 3-fold dilution, there were 11 concentrations in total, and the lowest final concentration was 0.042 nM. The final concentration of DMSO was 1%.

T2 sequence (P22455 whole entry, change not shown, the tested form may be a part): as the sequence (P22455 whole entry V550L, the tested form may be a part) above, with L550V counted along it
Sequence of FGFR4 kinase (P22455 22-802): as the sequence (P22455 22-802 V550L) above, with L529V counted along it

On to `C=CC(=O)Nc1cc(N2CCN(CC)CC2)c(C)cc1Nc1ncc(C#N)c(Nc2ccccc2OC(C)C)n1` [Example 8, N-(2-((5-cyano-4-((2-isopropoxyphenyl)amino)pyrimidin-2-yl)amino)-5-(4-ethylpiperazin-1-yl)-4-methylphenyl) acrylamide], for which the IC50 against FGFR4 kinase was 10 to 50 nM; against FGFR4 V550L kinase it was no more than 10 nM. Also, the GI50 (in test [1]; at Ba/F3 ETV6-FGFR4 cells) was no more than 10 nM each time.
As for `C=CC(=O)Nc1cc(N2CCC(N3CCCC3)CC2)c(C)cc1Nc1ncc(C#N)c(Nc2ccccc2OC(C)C)n1` [Example 10, N-(2-((5-cyano-4-((2-isopropoxyphenyl)amino)pyrimidin-2-yl)amino)-4-methyl-5-(4-(pyrrolidin-1-yl)piperidin-1-yl)phenyl) acrylamide], the IC50 on FGFR4 kinase and against FGFR4 V550L kinase was 10 to 50 nM each time. The results for the GI50 (in test [1]; on Ba/F3 ETV6-FGFR4 cells) were 10 to 50 nM and no more than 10 nM, respectively.
For the molecule `C=CC(=O)Nc1cc(N2CCC(N3CCN(C)CC3)CC2)c(C)cc1Nc1ncc(C#N)c(Nc2ccccc2OC(C)C)n1` [Example 13, N-(2-((5-cyano-4-((2-isopropoxyphenyl)amino)pyrimidin-2-yl)amino)-4-methyl-5-(4-(4-methylpiperazin-1-yl)piperidin-1-yl)phenyl) acrylamide], the IC50 against FGFR4 kinase and on FGFR4 V550L kinase was 10 to 50 nM in each case. For the same molecule, the GI50 is 10 to 50 nM in test [1] and no more than 10 nM at Ba/F3 ETV6-FGFR4 cells.
As to `C=CC(=O)Nc1cc(N2CCN(C)CC2)c(F)cc1Nc1ncc(C#N)c(Nc2ccccc2OC(C)C)n1` [Example 14, N-(2-((5-cyano-4-((2-isopropoxyphenyl)amino)pyrimidin-2-yl)amino)-4-fluoro-5-(4-methylpiperazin-1-yl)phenyl) acrylamide], the IC50 was in the range of 50 to 100 nM against FGFR4 kinase and 10 to 50 nM on FGFR4 V550L kinase. Moreover, the GI50 (in test [1]; on Ba/F3 ETV6-FGFR4 cells) was no more than 10 nM in each case.
Consider `C=CC(=O)Nc1cc(N2CCN(CC)CC2)c(F)cc1Nc1ncc(C#N)c(Nc2ccccc2OC(C)C)n1` [Example 15, N-(2-((5-cyano-4-((2-isopropoxyphenyl)amino)pyrimidin-2-yl)amino)-5-(4-ethylpiperazin-1-yl)-4-fluorophenyl) acrylamide], for which the IC50 against FGFR4 kinase was 50 to 100 nM; against FGFR4 V550L kinase it was 10 to 50 nM. Moreover, the GI50 (in test [1]; at Ba/F3 ETV6-FGFR4 cells) was no more than 10 nM throughout.
For the molecule `C=CC(=O)Nc1cc(N2CCC(N(C)C)CC2)c(F)cc1Nc1ncc(C#N)c(Nc2ccccc2OC(C)C)n1` [Example 16, N-(2-((5-cyano-4-((2-isopropoxyphenyl)amino)pyrimidin-2-yl)amino)-5-(4-(dimethylamino)piperidin-1-yl)-4-fluorophenyl) acrylamide], the figures for the IC50 against FGFR4 kinase and on FGFR4 V550L kinase were 10 to 50 nM and no more than 10 nM, respectively. The GI50 (in test [1]; on Ba/F3 ETV6-FGFR4 cells) was no more than 10 nM each time.
On to `C=CC(=O)Nc1cc(N2CCC(N3CCCC3)CC2)c(F)cc1Nc1ncc(C#N)c(Nc2ccccc2OC(C)C)n1` [Example 17, N-(2-((5-cyano-4-((2-isopropoxyphenyl)amino)pyrimidin-2-yl)amino)-4-fluoro-5-(4-(pyrrolidin-1-yl)piperidin-1-yl)phenyl) acrylamide], for which the IC50 against FGFR4 kinase and against FGFR4 V550L kinase was 10 to 50 nM in each case. Besides, the GI50 (in test [1]; at Ba/F3 ETV6-FGFR4 cells) was no more than 10 nM each time.
On to `C=CC(=O)Nc1cc(N2CCC(N3CCCCC3)CC2)c(F)cc1Nc1ncc(C#N)c(Nc2ccccc2OC(C)C)n1` [Example 18, N-(5-([1,4‘- bipiperidin]-1′-yl)-2-((5-cyano-4-((2-isopropoxyphenyl)amino)pyrimidin-2-yl)amino)-4-fluorophenyl) acrylamide], for which the IC50 at FGFR4 kinase and on FGFR4 V550L kinase was 10 to 50 nM each time. Besides, the GI50 (in test [1]; on Ba/F3 ETV6-FGFR4 cells) was no more than 10 nM each time.

The IC50 is the midpoint of a concentration-inhibition curve. A lower IC50 goes with greater potency in that assay.

The values are drawn from patent US12582654B2, “Cyano-substituted pyridine and cyano-substituted pyrimidine compound and preparation method therefor and application thereof” (BEIJING SCITECH-MQ PHARMACEUTICALS LIMITED, priority 2019, dated 2026).
